Measurements: US11524968B2, “Heterocyclic compound as a protein kinase inhibitor” (HK inno.N Corporation, priority 2017, dated 2022)

Target: JAK1 (Homo sapiens (Human), UniProt P23458)
Assay: Analysis of JAK1 activity inhibition ability (ADP-Glo Kinase Assay)
Type: biochemical
Conditions: JAK1 enzyme, ADP-Glo luminescence, ATP 250 uM, IRS-itide substrate, 30° C. 40 minutes; read-out: IC50
Protocol: Test Example 1: Analysis of JAK1 Activity Inhibition Ability of Compound of Formula 1 (ADP-Glo™ Kinase Assay)
A JAK inhibition ability of a compound according to the present invention was identified as follows.
A control material and a test material were prepared for each concentration, in such a way that they were diluted by means of DMSO. At the same time, ATP (250 uM) and JAK substrate (JAK1, IRS-itide 40 ng/mL) were prepared, in such a way that they were diluted by means of kinase buffer (40 mM Tris-HCl pH 7.5, 20 mM MgCl2, 0.5 mg/mL BSA, 50 uM DTT).
A test drug for each concentration, substrate, ATP and JAK enzyme were mixed in an eppendorf tube, and reacted in a 30° C. incubator for 40 minutes.
ADP-Glo™ reagent contained in ADP-Glo™ Kinase Enzyme System (Promega, USA, V9571) was added into each eppendorf tube, and reacted in a 30° C. incubator for 40 minutes. A kinase detection reagent contained in ADP-Go™ Kinase Enzyme System was inserted into the eppendorf tube, then an integration time was set to 1 second by using Wallac Victor 2™, then luminescence was measured, and then JAKs phosphorylation inhibition ability of the test material was analyzed. The concentration of the compound, which causes 50% of the JAK enzyme activity inhibition in comparison With the control group, was determined as IC50 (nM) of an inhibitor, wherein the results thereof are shown in a following table 1.

Chain of JAK1 (P23458 whole entry): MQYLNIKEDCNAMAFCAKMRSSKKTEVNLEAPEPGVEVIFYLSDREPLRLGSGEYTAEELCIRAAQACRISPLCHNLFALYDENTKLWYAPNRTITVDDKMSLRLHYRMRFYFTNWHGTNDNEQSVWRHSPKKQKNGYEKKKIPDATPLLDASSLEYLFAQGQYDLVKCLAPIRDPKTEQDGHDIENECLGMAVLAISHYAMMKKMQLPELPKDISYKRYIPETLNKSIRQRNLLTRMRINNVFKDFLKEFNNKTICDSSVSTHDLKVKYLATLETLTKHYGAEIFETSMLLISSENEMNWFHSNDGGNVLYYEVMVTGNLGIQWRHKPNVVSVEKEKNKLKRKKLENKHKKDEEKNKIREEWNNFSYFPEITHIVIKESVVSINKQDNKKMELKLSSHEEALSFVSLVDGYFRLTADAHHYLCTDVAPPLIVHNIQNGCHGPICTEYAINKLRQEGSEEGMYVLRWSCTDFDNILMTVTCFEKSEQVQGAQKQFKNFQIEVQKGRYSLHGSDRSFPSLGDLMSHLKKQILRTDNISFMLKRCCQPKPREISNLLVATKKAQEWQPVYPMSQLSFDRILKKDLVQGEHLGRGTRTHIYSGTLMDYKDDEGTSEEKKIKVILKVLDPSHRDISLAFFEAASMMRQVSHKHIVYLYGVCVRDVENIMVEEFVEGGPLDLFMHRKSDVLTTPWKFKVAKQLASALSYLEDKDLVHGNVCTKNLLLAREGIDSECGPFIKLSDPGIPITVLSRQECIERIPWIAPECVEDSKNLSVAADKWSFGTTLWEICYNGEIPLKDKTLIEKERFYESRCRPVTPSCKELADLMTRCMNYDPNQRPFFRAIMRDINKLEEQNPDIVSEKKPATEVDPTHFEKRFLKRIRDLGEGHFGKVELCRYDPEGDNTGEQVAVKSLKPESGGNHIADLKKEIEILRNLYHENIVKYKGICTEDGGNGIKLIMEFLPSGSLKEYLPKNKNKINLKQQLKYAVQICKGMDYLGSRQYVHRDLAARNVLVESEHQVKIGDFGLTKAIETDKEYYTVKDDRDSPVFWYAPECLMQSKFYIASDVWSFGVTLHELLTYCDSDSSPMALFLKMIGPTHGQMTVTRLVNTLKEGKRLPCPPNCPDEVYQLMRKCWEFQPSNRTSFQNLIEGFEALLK

Structure (SMILES)	IC50 [nM]
CCS(=O)(=O)Nc1ccc(-c2cc(NC(=O)C3CC3)nc3[nH]ccc23)c(C)c1 [Example 29, N-(4-(4-(ethylsulfonamido)-2-methylphenyl)-1H-pyrrolo[2,3-b]pyridin-6-yl)cyclopropanecarboxamide]	< 20
CCS(=O)(=O)Nc1ccc(-c2cc(NC(=O)C3CC3)nc3[nH]ccc23)c(F)c1 [Example 30, N-(4-(4-(ethylsulfonamido)-2-fluorophenyl)-1H-pyrrolo[2,3-b]pyridin-6-yl)cyclopropanecarboxamide]	< 20
O=C(Nc1cc(-c2ccc(NS(=O)(=O)c3ccc(Br)c(F)c3)cc2)c2cc[nH]c2n1)C1CC1 [Example 31, N-(4-(4-((4-bromo-3-fluorophenyl)sulfonamido)phenyl)-1H-pyrrolo[2,3-b]pyridin-6-yl)cyclopropanecarboxamide]	20 to 200
O=C(Nc1cc(-c2ccc(NS(=O)(=O)c3ccc(Br)cc3F)cc2)c2cc[nH]c2n1)C1CC1 [Example 32, N-(4-(4-((4-bromo-2-fluorophenyl)sulfonamido)phenyl)-1H-pyrrolo[2,3-b]pyridin-6-yl)cyclopropanecarboxamide]	20 to 200
O=C(Nc1cc(-c2ccc(NS(=O)(=O)c3ccc(Cl)c(C(F)(F)F)c3)cc2)c2cc[nH]c2n1)C1CC1 [Example 33, N-(4-(4-((4-chloro-3-(trifluoromethyl)phenyl)sulfonamido)phenyl)-1H-pyrrolo[2,3-b]pyridin-6-yl)cyclopropanecarboxamide]	20 to 200
O=C(Nc1cc(-c2ccc(NS(=O)(=O)c3ccc4c(c3)OCO4)cc2)c2cc[nH]c2n1)C1CC1 [Example 34, N-(4-(4-(benzo[d][1,3]dioxole-5-sulfonamido)phenyl)-1H-pyrrolo[2,3-b]pyridin-6-yl)cyclopropanecarboxamide]	< 20
CCS(=O)(=O)Nc1ccc(-c2cc(NC(=O)C3CC3C)nc3[nH]ccc23)cc1 (stereo not shown) [Example 35, N-(4-(4-(ethylsulfonamido)phenyl)-1H-pyrrolo[2,3-b]pyridin-6-yl)-2-methylcyclopropane-1-carboxamide]	< 20
O=C(Nc1cc(-c2ccc(NS(=O)(=O)Cc3ccc(F)cc3)cc2)c2cc[nH]c2n1)C1CC1 [Example 36, N-(4-(4-(((4-fluorophenyl)methyl)sulfonamido)phenyl)-1H-pyrrolo[2,3-b]pyridin-6-yl)cyclopropanecarboxamide]	< 20
CN(C)S(=O)(=O)c1ccc(S(=O)(=O)Nc2ccc(-c3cc(NC(=O)C4CC4)nc4[nH]ccc34)cc2)cc1 [Example 37, N-(4-(4-((4-(N,N-dimethylsulfamoyl)phenyl)sulfonamido)phenyl)-1H-pyrrolo[2,3-b]pyridin-6-yl)cyclopropanecarboxamide]	20 to 200
O=C(Nc1cc(-c2ccc(NS(=O)(=O)c3ccc4c(c3)OCCO4)cc2)c2cc[nH]c2n1)C1CC1 [Example 38, N-(4-(4-((2,3-dihydrobenzo[b][1,4]dioxine)-6-sulfonamido)phenyl)-1H-pyrrolo[2,3-b]pyridin-6-yl)cyclopropanecarboxamide]	20 to 200
O=C(Nc1cc(-c2ccc(NS(=O)(=O)c3ccc(-n4cnnn4)cc3)cc2)c2cc[nH]c2n1)C1CC1 [Example 39, N-(4-(4-((4-(1H-tetrazol-1-yl)phenyl)sulfonamido)phenyl)-1H-pyrrolo[2,3-b]pyridin-6-yl)cyclopropanecarboxamide]	20 to 200
N#Cc1ccc(S(=O)(=O)Nc2ccc(-c3cc(NC(=O)C4CC4)nc4[nH]ccc34)cc2)cn1 [Example 40, N-(4-(4-((6-cyanopyridine)-3-sulfonamido)phenyl)-1H-pyrrolo[2,3-b]pyridin-6-yl)cyclopropanecarboxamide]	20 to 200
O=C(Nc1cc(-c2ccc(NS(=O)(=O)CC3CCCCC3)cc2)c2cc[nH]c2n1)C1CC1 [Example 47, N-(4-(4-((cyclohexylmethyl)sulfonamido)phenyl)-1H-pyrrolo[2,3-b]pyridin-6-yl)cyclopropanecarboxamide]	< 20

Second part, the compound after the results:

IC50 [nM]	Structure (SMILES)
< 20	CC(C)S(=O)(=O)Nc1ccc(-c2cc(NC(=O)C3CC3)nc3[nH]ccc23)cc1 [Example 41, N-(4-(4-((1-methylethyl)sulfonamido)phenyl)-1H-pyrrolo[2,3-b]pyridin-6-yl)cyclopropanecarboxamide]
< 20	CCC(CC)S(=O)(=O)Nc1ccc(-c2cc(NC(=O)C3CC3)nc3[nH]ccc23)cc1 [Example 42, N-(4-(4-((1-ethylpropyl)sulfonamido)phenyl)-1H-pyrrolo[2,3-b]pyridin-6-yl)cyclopropanecarboxamide]
< 20	CC(C)CS(=O)(=O)Nc1ccc(-c2cc(NC(=O)C3CC3)nc3[nH]ccc23)cc1 [Example 43, N-(4-(4-((2-methylpropyl)sulfonamido)phenyl)-1H-pyrrolo[2,3-b]pyridin-6-yl)cyclopropanecarboxamide]
< 20	CC(C)(C)CS(=O)(=O)Nc1ccc(-c2cc(NC(=O)C3CC3)nc3[nH]ccc23)cc1 [Example 44, N-(4-(4-((2,2-dimethylpropyl)sulfonamido)phenyl)-1H-pyrrolo[2,3-b]pyridin-6-yl)cyclopropanecarboxamide]
< 20	CC(C)CCS(=O)(=O)Nc1ccc(-c2cc(NC(=O)C3CC3)nc3[nH]ccc23)cc1 [Example 45, N-(4-(4-((3-methylbutyl)sulfonamido)phenyl)-1H-pyrrolo[2,3-b]pyridin-6-yl)cyclopropanecarboxamide]
< 20	O=C(Nc1cc(-c2ccc(NS(=O)(=O)CC3CC3)cc2)c2cc[nH]c2n1)C1CC1 [Example 46, N-(4-(4-((cyclopropylmethyl)sulfonamido)phenyl)-1H-pyrrolo[2,3-b]pyridin-6-yl)cyclopropanecarboxamide]
< 20	C=CCS(=O)(=O)Nc1ccc(-c2cc(NC(=O)C3CC3)nc3[nH]ccc23)cc1 [Example 48, N-(4-(4-(allylsulfonamido)phenyl)-1H-pyrrolo[2,3-b]pyridin-6-yl)cyclopropanecarboxamide]
20 to 200	O=C(Nc1cc(-c2ccc(NS(=O)(=O)CF)cc2)c2cc[nH]c2n1)C1CC1 [Example 49, N-(4-(4-((fluoromethyl)sulfonamido)phenyl)-1H-pyrrolo[2,3-b]pyridin-6-yl)cyclopropanecarboxamide]
20 to 200	O=C(Nc1cc(-c2ccc(NS(=O)(=O)C(F)F)cc2)c2cc[nH]c2n1)C1CC1 [Example 50, N-(4-(4-((difluoromethyl)sulfonamido)phenyl)-1H-pyrrolo[2,3-b]pyridin-6-yl)cyclopropanecarboxamide]
20 to 200	O=C(Nc1cc(-c2ccc(NS(=O)(=O)CC(F)F)cc2)c2cc[nH]c2n1)C1CC1 [Example 51, N-(4-(4-((2,2-difluoroethyl)sulfonamido)phenyl)-1H-pyrrolo[2,3-b]pyridin-6-yl)cyclopropanecarboxamide]
< 20	N#CCCCS(=O)(=O)Nc1ccc(-c2cc(NC(=O)C3CC3)nc3[nH]ccc23)cc1 [Example 52, N-(4-(4-((3-cyanopropyl)sulfonamido)phenyl)-1H-pyrrolo[2,3-b]pyridin-6-yl)cyclopropanecarboxamide]
20 to 200	CCOCCS(=O)(=O)Nc1ccc(-c2cc(NC(=O)C3CC3)nc3[nH]ccc23)cc1 [Example 53, N-(4-(4-((2-ethoxyethyl)sulfonamido)phenyl)-1H-pyrrolo[2,3-b]pyridin-6-yl)cyclopropanecarboxamide]
